According to US10668090B2, “Liver specific delivery-based antiviral prodrug nucleoside cyclophosphate compound and uses thereof” (ZHEJIANG PALO ALTO PHARMACEUTICALS, INC, priority 2016, dated 2020):
Structures can show the parent of a compound that is named as a salt. Where two headings read alike, the source gives them in different places.

Experiments:
[1] = Formation of active molecules by in vitro metabolism with human liver microsomes; type: in vitro ADME; conditions: 25 μM, pH 7.4
Description: Human liver microsomes used herein were purchased from In Vitro Technologies (IVT) Inc., Batch No.: SSP X008070, a mixed liver microsome extracted from the liver tissues of 150 donors. The metabolic activity of CYP3A4 in the liver microsomes of this batch was recorded in the product description to be 1.734 nmol/mg/min (a rate of metabolizing testosterone into […]). The test compounds were synthesized by Zhejiang Paloalto Pharmaceutical Technology Co., Ltd., and dissolved in methanol to produce a 25 mM stock solution. The enzymatic reaction was carried out in 100 μL of a reaction solution (100 mM Tris-HCl, 5 mM MgCl2, pH 7.4) at a test compound concentration of 25 μM and a human liver microsome concentration of 2 mg/mL, and NADPH was added to start the reaction (with a final concentration of 2 mM). After the reaction was performed in a constant temperature shaking water bath for 5 minutes, acetonitrile was quickly added to terminate the reaction at 1.5 times the volume of the reaction mixture. The collected samples were centrifuged at a maximum speed of 13,600 rpm for 20 minutes using an Eppendorf table top centrifuge. The supernatant was collected and dried with a nitrogen evaporator, and then redissolved with mobile phase A, which was an aqueous solution containing 5 mM of ammonium acetate and 0.05% formic acid by volume. The resulting solution was subjected to quantitative analysis using LS-MS/MS (Waters, Acquity UPLC HSS T3 column).

[2] = Description: Male SD rats weighing 180-300 g were provided by Shanghai Sippr-BK Laboratory Animals Co., Ltd. Male animals were adapted to the environment for more than 3 days and fasted for 12 hours but without water deprivation at the night before the experiment. PA1010 (compound 4-cis), PA1007 (compound 6-cis), TAF and TDF were respectively dissolved in a normal saline to prepare their corresponding solutions. Before the administration, the animal's body weight was checked whether it met the experimental requirements. 12 rats were selected for grouping, 2 rats in each group, and were intragastrically administered with a drug solution at 30 mg/kg. Rats were euthanized with carbon dioxide gas at 0.5, 1, 3, 6, 12 and 24 h, respectively. Blood samples were collected from the heart and stored in a heparin anticoagulation tube. Then the samples were centrifuged at 4° C. and 6,000 rpm for 5 minutes, and the plasma supernatant was stored in ice. The kidney and liver tissues of the rats were collected and rinsed with normal saline pre-cooled at 4° C., and then stored in ice after water was drained. After the experiment, the samples were stored at −80° C. in a refrigerator.
The kidney and liver tissues were disrupted and mixed thoroughly in normal saline 5 times the volume of the kidney and liver tissues to obtain a tissue homogenate sample. 100 μL of the rat plasma or tissue homogenate sample was mixed uniformly with 100 μL of 10% trichloroacetic acid precipitant containing 50 ng/mL of adefovir (internal standard) and the solvent thereof was prepared by methanol and acetonitrile in a volume ratio of 50:50. The mixture was centrifuged at 4° C. and 6000 rpm for 5 minutes, and all supernatant was treated with a SPE microextraction plate (MCX μElution Plate 30 μm, Waters). Finally, the microextraction plate was eluted with a methanol solution containing 5% ammonia, and 75 μL of the obtained eluent was transferred to a 384-well sample plate for analysis with an injection volume of 1 μL.
LC-MS/MS-AJ (Triple Quad 5500, AB SCIEX) was used for sample analysis. The chromatographic conditions were shown as follows: chromatographic column: Acquity UPLC HSS T3 (2.1×50 mm, 1.8 μm); column temperature: 40° C.; flow rate: 0.5 mL/min; mobile phase A: 0.1% formic acid aqueous solution and mobile phase B: an acetonitrile solution. The mass spectrometry conditions corresponding to the internal standard were shown as follows: electrospray ionization (ESI): positive ion mode; ion pair m/z monitored by multiple reaction monitoring (MRM): 288/176 (PMPA), 274/162 (PMEA); capillary voltage: 3.0 kV; temperature: 500° C.; desolvation gas flow: 1000 L/h; scanning time: 0.025 seconds; and collision energy: 25 V.
Bar charts of the concentration of PMPA in plasma, liver and kidney corresponding to time were respectively plotted. The area (AUC0-t) under the tissue concentration-time curve of PMPA was fitted using the log-linear trapezoidal method in a non-compartmental model of WinNonLin 6.2.1 (Pharsight, CA). The ratios of liver to kidney and liver to plasma of PMPA were obtained by calculating the ratio of their corresponding AUC0-t.

[3] = male, SD, rat, in vivo, po, 30 mg/kg
[4] = rats, intragastric 30 mg/kg, 0.5-24 h, kidney
[5] = rats, intragastric 30 mg/kg, 0.5-24 h
[6] = rats, intragastric 30 mg/kg, 0.5-24 h, plasma

SMILES	Average rate of PMPA production in 5 minutes [1] [pmol/min/mg HLM]	Exposure (AUC0-t) of the active molecule PMPA in kidney [2, 4] [ng·h/g]	Exposure (AUC0-t) of the active molecule PMPA in liver [2, 5] [ng·h/g]	Exposure (AUC0-t) of the active molecule PMPA in plasma [2, 6] [ng·h/g]	also measured
C[C@H](Cn1cnc2c(N)ncnc21)OCP1(=O)OCC[C@@H](c2cccc(Cl)c2F)O1 (mixture of isomers) [Compound 1, (2R)-9-{2-[(4S)-4-(3-chloro-2-fluorophenyl)-2-oxo-1,3,2-dioxaphosphorinan-2-yl]methoxypropyl}adenine]	33.8	–	–	–	–
C[C@H](Cn1cnc2c(N)ncnc21)OCP1(=O)OCC[C@@H](c2cc(F)cc(Cl)c2)O1 (mixture of isomers) [Compound 2, (2R)-9-{2-[(4S)-4-(3-chloro-5-fluorophenyl)-2-oxo-1,3,2-dioxaphosphorinan-2-yl]methoxypropyl}adenine]	46.8	–	–	–	–
C[C@H](Cn1cnc2c(N)ncnc21)OCP1(=O)OCC[C@@H](c2ccc(F)c(Cl)c2)O1 (mixture of isomers) [Compound 3, (2R)-9-{2-[(4S)-4-(3-chloro-4-fluorophenyl)-2-oxo-1,3,2-dioxaphosphorinan-2-yl]methoxypropyl}adenine]	22.2	–	–	–	–
C[C@H](Cn1cnc2c(N)ncnc21)OCP1(=O)OCC[C@@H](c2cccc(Cl)c2)O1 (mixture of isomers) [Compound 7, (2R)-9-{2-[(4S)-4-(3-chlorophenyl)-2-oxo-1,3,2-dioxaphosphorinan-2-yl]methoxypropyl}adenine, reference compound]	27.5	–	–	–	–
C[C@H](Cn1cnc2c(N)ncnc21)OC[P@@]1(=O)OCC[C@@H](c2cc(Cl)ccc2F)O1 [Compound 4-cis, (2R)-9-{2-[(2R, 4S)-4-(5-chloro-2-fluorophenyl)-2-oxo-1,3,2-dioxaphosphorinan-2-yl]methoxypropyl}adenine]	–	–	–	–	exposure level of PMPA in the liver, times that released from TAF ([2]; male, SD, rat, in vivo): 1.5 times; exposure level of PMPA in the liver, times that released from TDF ([2]; male, SD, rat, in vivo): 2.9 times; Liver-kidney Ratio of PMPA AUC0-t [2, 3]: 1.0; Liver-plasma Ratio of PMPA AUC0-t [2, 3]: 51.4; PMPA level in liver tissues compared with TAF and TDF at the corresponding time points ([2]; rat, in vivo): significantly higher; exposure level of PMPA in the kidney compared with TAF and TDF ([2]; rat, in vivo): significantly lower; Exposure (AUC0-t) of the active molecule PMPA in kidney ([2]; rat, in vivo, po, 30 mg/kg): 234298 ng·h/g; Exposure (AUC0-t) of the active molecule PMPA in plasma ([2]; rat, in vivo, po, 30 mg/kg): 4332 ng·h/g
C[C@H](Cn1cnc2c(N)ncnc21)OC[P@@]1(=O)OCC[C@@H](c2cc(F)cc(Cl)c2)O1 [Compound 6-cis, (2R)-9-{2-[(2R, 4S)-4-(3-chloro-5-fluorophenyl)-2-oxo-1,3,2-dioxaphosphorinan-2-yl]methoxypropyl}adenine]	75.8	65393	76075	1272	exposure level of PMPA in the kidney compared with TAF and TDF ([2]; rats, intragastric 30 mg/kg): significantly lower
CC(C)OC(=O)[C@H](C)N[P@](=O)(CO[C@H](C)Cn1cnc2c(N)ncnc21)Oc1ccccc1 [TAF, tenofovir alafenamide, reference compound]	–	297233	148407	4892	–
CC(C)OC(=O)OCOP(=O)(CO[C@H](C)Cn1cnc2c(N)ncnc21)OCOC(=O)OC(C)C [TDF, tenofovir disoproxil fumarate, reference compound]	–	319562	78050	3097	–
